Data set [1] relates to MiaPaCa-2, Hu-Melanoma cells, BMRPA1.TUC-3 cells. Kind of data set: Dose-response cytotoxicity by LDH release, cancer cells (FIG. 13 A-C). The class given is cell-based. The settings on record: 1-500 micrograms/ml; 30 min at 37° C.; tumor cells. The protocol:
(§1) FIG. 13, graphs A through D, depict the results of dose-response experiments completed on three difference cancer cell samples and one normal primary human cell line to treatment in vitro with PNC-27 (from 1-500 micrograms/ml). The cancer cell lines were human pancreatic cancer, MiaPaCa-2 (upper left, A), Hu-Melanoma cells (upper right, B), and a rodent tumor cell line, i.e., pancreatic cancer BMRPA1.TUC-3 cells (lower left, C). As controls, cells from the same cell lines were tested in parallel with a control peptide, PNC-29, over the same range of peptide concentrations. As another control, cells from primary human Ag 13145 fibroblasts (lower right, D) were treated with the same doses of PNC-27 and PNC-29, respectively.
(§2) The results are plotted along with those for PNC-29, the negative control. […] The measurements of cytotoxicity were performed by assaying for LDH in the cell supernatant.
(§3) For the dose response experiments (n=3-5), 0.1 ml of each of the cells (70,000 cells/ml of culture medium) were seeded into each of the wells of 96-well TCD (7000 cells/well) and allowed to adhere overnight. […] The results were read at OD490 nm in an ELISA plate reader within 15 min of stopping the color development in the wells. The results were calculated as advised by the manufacturers guidelines (CytoTox 96 Non-radioactive Cytotoxicity Assay, Promega), and the data were expressed in % Cytotoxicity.
A general note: LDH in the medium is a marker of cell lysis.

In data set [2] the test system is human pancreatic cancer MIA PaCa-2 cells. Kind of data set: Transmission electron microscopy of PNC-28-treated cells (FIG. 8). It counts as cell-based. The settings on record: treated for 10 minutes; 50 μg/ml. The protocol: FIG. 8 depicts a photograph taken during a Transmission Electron Microscopy study of human pancreatic cancer MIA PaCa-2 cells that had been treated for 10 minutes with PNC-28. […] The middle arrow depicts an area of the cell's plasma membrane that has erupted as a result of PNC-28 acting upon it. The bottom-most arrow depicts an area on the cell's plasma membrane that is discontinuous as a result of PNC-28 administration. From one or more of these areas emphasized with arrows, the cytoplasm will begin to leak from the cell, into the surrounding medium. Extrusion of much of the cells cytoplasmic content through such holes (pores) while the nuclear membrane was still intact was a frequent finding in these and other tumor cells when the incubation period with PNC-28 was extended. Magn. ×42,600.
Cells (1×10^6) were grown in 6-well dishes overnight then spent medium was removed, the cells were washed with PBS and treated at 37° C. with PNC-28 at 50 μg/ml in PBS. At different time points (5-30 min) during the PNC-28 treatment the cells were washed and fixed in 3% buffered paraformaldehyde supplemented with 0.01% glutaraldehyde for 1.5 h. After extensive washing, the cells were treated with glycine and NaBH4 as described above followed by 3 times washing in PBS. […]

The test system of a further data set is non-cancerous cells. Kind of data set: Untransformed cell lines and primary human cells incubated with peptide (FIG. 5). The settings on record: Thirty microMolar; one day up to two weeks; normal rat pancreatic acinar cells, human breast cells, primary human fibroblasts, primary human keratinocytes, umbilical cord stem cells. It counts as cell-based. The text has this: The experimental methods which yielded the data depicted in FIG. 5 are described in sufficient detail for those skilled in the art in the following publications: • Kanovsky, M., Raffo, A., Drew, L., Rosal, R., Do, T., Friedman, F. K., Rubinstein, P., Visser, I., Robinson, R., Brandt-Rauf, […]., Fine, R. L. and Pincus, M. R. (2001) Peptides from the Amino Terminal mdm-2 Binding Domain of p53, Designed from Conformational Analysis, Are Selectively Cytotoxic to Transformed Cells. Proc. Natl. Acad. Sci. USA 98, 12438-12443; • Do, T. N., Rosal, R. V., Drew, L., Raffo, […]., Pincus, M. R., Friedman, […]., Sidhu, G., Fine, R. L. and Brandt-Rauf, P. W. (2003) Preferential Induction of Necrosis in Human Breast Cancer Cells by a p53 Peptide Derived from the mdm-2 Binding Site. Oncogene 22, 1431-1444; and • Bowne, […]., Yadzi, E., Lou, […]., Harding, M., Bluth, M. H., Ng, M., Brandt-Rauf, […]. and Pincus, M. r. (2008) The Penetrating Sequence in the Anti-Cancer PNC-28 Peptide Causes Tumor Necrosis Rather than Apoptosis of Human Pancreatic Cancer Cells. Ann. Surg. Oncol., in press. Referring to FIG. 5, the table illustrates that the cancer treatment PNC-27, when administered to non-cancerous cells, has no effect. […]

The subject of data set [3] is primary human Ag 13145 fibroblasts. In words: Dose-response cytotoxicity by LDH release, normal fibroblasts (FIG. 13 D). It counts as cell-based. As to conditions: same dose range as applied to tumor cells (1-500 micrograms/ml); 30 min at 37° C. The protocol:
as §1, §2, §3

A word on the IC50: it is the midpoint of a concentration-inhibition curve. Lower therefore signals higher potency.

Ends that are not written are not given here.

Turning to `CC[C@H](C)[C@H](NC(=O)[C@H](CCCNC(=N)N)NC(=O)[C@H](CCCCN)NC(=O)CNC(=O)[C@@H](NC(=O)[C@H](CO)NC(=O)[C@H](Cc1ccccc1)NC(=O)[C@@H]1CCCN1C(=O)[C@@H](N)CCSC)[C@@H](C)O)C(=O)N[C@@H](CCSC)C(=O)N[C@@H](CC(C)C)C(=O)NCC(=O)N[C@@H](CCC(=O)O)C(=O)N[C@@H](CCCCN)C(=O)N[C@@H](CCCCN)C(=O)N[C@@H](Cc1c[nH]c2ccccc12)C(=O)N[C@@H](CCCCN)C(=O)N[C@@H](CCSC)C(=O)N[C@@H](CCCNC(=N)N)C(=O)N[C@@H](CCCNC(=N)N)C(=O)N[C@@H](CC(N)=O)C(=O)N[C@@H](CCC(N)=O)C(=O)N[C@@H](Cc1ccccc1)C(=O)N[C@@H](Cc1c[nH]c2ccccc12)C(=O)N[C@H](C(=O)N[C@@H](CCCCN)C(=O)N[C@H](C(=O)N[C@@H](CCC(N)=O)C(=O)N[C@@H](CCCNC(=N)N)C(=O)NCC(=O)O)C(C)C)C(C)C` [PNC-29, reference compound], the “cytotoxicity (LDH in the cell supernatant)” value in data set [1] is recorded as “absence of any effect”.

As to “ETFSDLWKLLKKWKMRRNQFWVKVQRG (PNC-28) [p53 AA 17-26 attached to the membrane resident peptide (MRP)]”, the “plasma membrane change (TEM)” value in data set [2] is recorded as “needle-shaped pore has formed in the cancer cell plasma membrane”. In addition, the “effect on non-cancerous cells” value in the data set with non-cancerous cells was “no measurable effect”.

Consider “PPLSQETFSDLWKLLKKWKMRRNQFWVKVQRG [PNC-27]”, for which the “cytotoxicity (LDH in the cell supernatant)” value in data set [3] is recorded as “no effect”; in data set [1], “strong dose dependency”. Besides, the IC50 with Cancer cells is 125 µg/mL.

The values above are taken from US9539327B2, “Small molecule cancer treatments that cause necrosis in cancer cells but do not affect normal cells” (THE RESEARCH FOUNDATION FOR THE STATE UNIVERSITY OF NEW YORK, priority 2007, dated 2017).
